In general, IC50 refers to the concentration needed to halve the response being measured.

For 23 compounds, IC50 results are on record in US8846698B2, “Pyrrolo[2,3-d]pyrimidine tropomysin-related kinase inhibitors” (Pfizer Limited, priority 2011, dated 2014).

TRKA, sequence (P04629 441-796): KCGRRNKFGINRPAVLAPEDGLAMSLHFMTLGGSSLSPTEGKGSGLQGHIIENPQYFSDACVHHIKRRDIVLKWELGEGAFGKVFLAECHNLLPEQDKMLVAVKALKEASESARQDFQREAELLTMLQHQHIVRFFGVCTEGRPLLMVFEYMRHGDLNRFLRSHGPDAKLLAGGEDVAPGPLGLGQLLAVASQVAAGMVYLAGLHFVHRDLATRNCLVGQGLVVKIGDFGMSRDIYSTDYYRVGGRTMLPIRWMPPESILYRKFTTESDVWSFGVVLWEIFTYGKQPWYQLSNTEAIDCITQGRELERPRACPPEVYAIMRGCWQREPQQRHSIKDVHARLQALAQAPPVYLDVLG

This experiment addresses TRKA (Homo sapiens (Human), UniProt P04629). Nature of the experiment: Isolated TRK enzyme assay (HTRF KinEASE-TK), TRKA. It counts as biochemical. Conditions: read-out: Trka enzyme (IC50). For orientation: Time-resolved FRET reads energy transfer from a long-lived donor to a nearby acceptor.
For the compound `CC(C)n1cc(C(=O)c2cncc(NC(=O)Cn3nnc4ccccc43)c2)c2cncnc21` [Example 135, 2-(1H-benzotriazol-1-yl)-N-{5-[(7-isopropyl-7H-pyrrolo[2,3-d]pyrimidin-5-yl)carbonyl]pyridin-3-yl}acetamide], the concentration for half-maximal inhibition (IC50) came to 312 nM.
The result for `CC(C)n1cc(C(=O)c2cncc(NC(=O)Cc3cn(C)c4ccccc34)c2)c2cncnc21` [Example 136, N-{5-[(7-isopropyl-7H-pyrrolo[2,3-d]pyrimidin-5-yl)carbonyl]pyridin-3-yl}-2-(1-methyl-1H-indol-3-yl)acetamide] reads 334 nM; that for `CC(C)n1cc(C(=O)c2cncc(NC(=O)Cc3cc(-c4ccccc4)c[nH]3)c2)c2cncnc21` [Example 137, N-{5-[(7-isopropyl-7H-pyrrolo[2,3-d]pyrimidin-5-yl)carbonyl]pyridin-3-yl}-2-(4-phenyl-1H-pyrrol-2-yl)acetamide], 496 nM.
As to `CCc1nc2cccnc2n1CC(=O)Nc1cncc(C(=O)c2cn(C(C)C)c3ncncc23)c1` [Example 138, 2-(2-ethyl-3H-imidazo[4,5-b]pyridin-3-yl)-N-{5-[(7-isopropyl-7H-pyrrolo[2,3-d]pyrimidin-5-yl)carbonyl]pyridin-3-yl}acetamide], the IC50 came out at 8310 nM.
For the compound `CC(C)n1cc(C(=O)c2cncc(NC(=O)Cc3c[nH]c4ccc(Cl)cc34)c2)c2cncnc21` [Example 139, 2-(5-chloro-1H-indol-3-yl)-N-{5-[(7-isopropyl-7H-pyrrolo[2,3-d]pyrimidin-5-yl)carbonyl]pyridin-3-yl}acetamide], the IC50 came to 65.7 nM.
Take `CC(C)n1cc(C(=O)c2cncc(NC(=O)Cc3ccn(-c4ccccc4)c3)c2)c2cncnc21` [Example 140, N-{5-[(7-isopropyl-7H-pyrrolo[2,3-d]pyrimidin-5-yl)carbonyl]pyridin-3-yl}-2-(1-phenyl-1H-pyrrol-3-yl)acetamide]: the 50% inhibitory concentration (IC50) amounted to 219 nM.
`Cc1ccc2[nH]cc(CC(=O)Nc3cncc(C(=O)c4cn(C(C)C)c5ncncc45)c3)c2c1` [Example 141, N-{5-[(7-isopropyl-7H-pyrrolo[2,3-d]pyrimidin-5-yl)carbonyl]pyridin-3-yl}-2-(5-methyl-1H-indol-3-yl)acetamide]: the IC50 turned out to be 59.5 nM.
Regarding `CCc1nc2ccccc2n1CC(=O)Nc1cncc(C(=O)c2cn(C(C)C)c3ncncc23)c1` [Example 142, 2-(2-ethyl-1H-benzimidazol-1-yl)-N-{5-[(7-isopropyl-7H-pyrrolo[2,3-d]pyrimidin-5-yl)carbonyl]pyridin-3-yl}acetamide], the IC50 worked out at 1380 nM.
Then `CC(C)n1cc(C(=O)c2cncc(NC(=O)Cc3cn4cccnc4n3)c2)c2cncnc21` [Example 143, 2-imidazo[1,2-a]pyrimidin-2-yl-N-{5-[(7-isopropyl-7H-pyrrolo[2,3-d]pyrimidin-5-yl)carbonyl]pyridin-3-yl}acetamide], with 4730 nM.
Consider `CC(C)n1cc(C(=O)c2cncc(NC(=O)Cc3n[nH]c4ccccc34)c2)c2cncnc21` [Example 144, 2-(1H-indazol-3-yl)-N-{5-[(7-isopropyl-7H-pyrrolo[2,3-d]pyrimidin-5-yl)carbonyl]pyridin-3-yl}acetamide], for which the half-inhibitory concentration (IC50) worked out at 71.5 nM.
For the compound `COc1cc(F)cc2ccn(CC(=O)Nc3cncc(C(=O)c4cn(C(C)C)c5ncncc45)c3)c12` [Example 145, 2-(5-fluoro-7-methoxy-1H-indol-1-yl)-N-{5-[(7-isopropyl-7H-pyrrolo[2,3-d]pyrimidin-5-yl)carbonyl]pyridin-3-yl}acetamide], the half-maximal inhibitory concentration (IC50) is 37.4 nM.
For `CC(C)n1cc(C(=O)c2cncc(NC(=O)Cc3cn(Cc4ccccc4)nn3)c2)c2cncnc21` [Example 146, 2-(1-benzyl-1H-1,2,3-triazol-4-yl)-N-{5-[(7-isopropyl-7H-pyrrolo[2,3-d]pyrimidin-5-yl)carbonyl]pyridin-3-yl}acetamide], the IC50 was found to be 573 nM.
Then `CC(C)n1cc(C(=O)c2cncc(NC(=O)Cc3nn(C)c4cc(Cl)ccc34)c2)c2cncnc21` [Example 147, 2-(6-chloro-1-methyl-1H-indazol-3-yl)-N-{5-[(7-isopropyl-7H-pyrrolo[2,3-d]pyrimidin-5-yl)carbonyl]pyridin-3-yl}acetamide], with 76.4 nM; and `CC(C)n1cc(C(=O)c2cncc(NC(=O)Cc3c[nH]c4c(Cl)cccc34)c2)c2cncnc21` [Example 148, 2-(7-chloro-1H-indol-3-yl)-N-{5-[(7-isopropyl-7H-pyrrolo[2,3-d]pyrimidin-5-yl)carbonyl]pyridin-3-yl}acetamide], with 93.4 nM; and `Cc1c(-c2ccccc2)cnn1CC(=O)Nc1cncc(C(=O)c2cn(C(C)C)c3ncncc23)c1` [Example 149, N-{5-[(7-isopropyl-7H-pyrrolo[2,3-d]pyrimidin-5-yl)carbonyl]pyridin-3-yl}-2-(5-methyl-4-phenyl-1H-pyrazol-1-yl)acetamide], with 3570 nM.
Take `CC(C)n1cc(C(=O)c2cncc(NC(=O)Cc3cncc(Br)c3)c2)c2cncnc21` [Example 150, 2-(5-bromopyridin-3-yl)-N-{5-[(7-isopropyl-7H-pyrrolo[2,3-d]pyrimidin-5-yl)carbonyl]pyridin-3-yl}acetamide]: the concentration for half-maximal inhibition (IC50) turned out to be 51 nM.
As to `CC(C)n1cc(C(=O)c2cncc(NC(=O)Cc3ccccn3)c2)c2cncnc21` [Example 151, N-{5-[(7-isopropyl-7H-pyrrolo[2,3-d]pyrimidin-5-yl)carbonyl]pyridin-3-yl}-2-pyridin-2-ylacetamide], the concentration for half-maximal inhibition (IC50) was determined as 232 nM.
On to `COc1ccc(CC(=O)Nc2cncc(C(=O)c3cn(C(C)C)c4ncncc34)c2)cn1` [Example 152, N-{5-[(7-isopropyl-7H-pyrrolo[2,3-d]pyrimidin-5-yl)carbonyl]pyridin-3-yl}-2-(6-methoxypyridin-3-yl)acetamide], for which the 50% inhibitory concentration (IC50) was found to be 82.5 nM.
The result for `Cc1ccc2[nH]c(C)c(CC(=O)Nc3cncc(C(=O)c4cn(C(C)C)c5ncncc45)c3)c2c1` [Example 153, 2-(2,5-dimethyl-1H-indol-3-yl)-N-{5-[(7-isopropyl-7H-pyrrolo[2,3-d]pyrimidin-5-yl)carbonyl]pyridin-3-yl}acetamide] reads 71.5 nM; that for `Cc1ccc(CC(=O)Nc2cncc(C(=O)c3cn(C(C)C)c4ncncc34)c2)cn1` [Example 154, N-{5-[(7-isopropyl-7H-pyrrolo[2,3-d]pyrimidin-5-yl)carbonyl]pyridin-3-yl}-2-(6-methylpyridin-3-yl)acetamide], 94.1 nM; that for `Cc1ccc2ccc(CC(=O)Nc3cncc(C(=O)c4cn(C(C)C)c5ncncc45)c3)cc2n1` [Example 155, N-{5-[(7-isopropyl-7H-pyrrolo[2,3-d]pyrimidin-5-yl)carbonyl]pyridin-3-yl}-2-(2-methylquinolin-7-yl)acetamide], 49.1 nM.
For the compound `COc1ccc2[nH]c(C)c(CC(=O)Nc3cncc(C(=O)c4cn(C(C)C)c5ncncc45)c3)c2c1` [Example 156, N-{5-[(7-isopropyl-7H-pyrrolo[2,3-d]pyrimidin-5-yl)carbonyl]pyridin-3-yl}-2-(5-methoxy-2-methyl-1H-indol-3-yl)acetamide], the 50% inhibitory concentration (IC50) came to 133 nM.
As for `CC(C)n1cc(C(=O)c2cncc(NC(=O)Cc3ccc4nnnn4n3)c2)c2cncnc21` [Example 157, N-{5-[(7-isopropyl-7H-pyrrolo[2,3-d]pyrimidin-5-yl)carbonyl]pyridin-3-yl}-2-tetrazolo[1,5-b]pyridazin-6-ylacetamide], the IC50 came to 174 nM.
